Laboratory results as given in ChEMBL document CHEMBL1821636, “Binding inhibitors of the bacterial sliding clamp by design” (J Med Chem, 2011).
pIC50: −log10 of the molar value. Non-standard residues stand in square brackets, D forms with d. Residues, ends and D or L forms follow the SMILES beside them. Phe(3,4-Cl2) = N[C@@H](Cc1ccc(Cl)c(Cl)c1)C(=O)O; pGlu = O=C1CC[C@@H](C(=O)O)N1

Tests used:
[1] = Inhibition of Escherichia coli polymerase 3alpha/beta subunit homo dimer interaction by plate binding assay
[2] = Binding affinity to Escherichia coli polymerase 3 beta subunit homo dimer by SPR assay

Row | pIC50 [1] | pIC50 [2] | Compound
1 | 3.57 | – | CCC/C(=N\OCc1ccc(-c2ccccc2)cc1)C1C(=O)CC(C)(C2OCC(C)(C)CO2)OC1=O (stereo not given)
2 | 3.46 | – | CCC/C(=N\OC/C(Cl)=C/c1ccc(Cl)cc1)C1C(=O)CC(C)(C)CC1=O
3 | 5.59 | 6.21 | CC(C)C[C@H](NC(=O)[C@H](CC(=O)O)NC(=O)[C@H](CC(C)C)NC(=O)[C@@H](N)CCC(N)=O)C(=O)N[C@@H](Cc1ccccc1)C(=O)O
4 | 7.15 | 6.40 | CC(=O)N[C@@H](CCC(N)=O)C(=O)N[C@@H](CC(C)C)C(=O)N[C@@H](CC(=O)O)C(=O)N[C@@H](CC(C)C)C(=O)N[C@@H](Cc1ccccc1)C(=O)O
5 | 7.47 | 6.93 | CC(=O)N[C@@H](CCC(N)=O)C(=O)N[C@@H](CC(C)C)C(=O)N[C@@H](CC(=O)O)C(=O)N[C@@H](CC(C)C)C(=O)N[C@@H](Cc1ccccc1Cl)C(=O)O
6 | 7.96 | 7.31 | CC(=O)N[C@@H](CCC(N)=O)C(=O)N[C@@H](CC(C)C)C(=O)N[C@@H](CC(=O)O)C(=O)N[C@@H](CC(C)C)C(=O)N[C@@H](Cc1cccc(Cl)c1)C(=O)O
7 | 7.57 | 7.70 | CC(=O)N[C@@H](CCC(N)=O)C(=O)N[C@@H](CC(C)C)C(=O)N[C@@H](CC(=O)O)C(=O)N[C@@H](CC(C)C)C(=O)N[C@@H](Cc1ccc(Cl)cc1)C(=O)O
8 | 7.68 | 7.64 | CC(=O)N[C@@H](CCC(N)=O)C(=O)N[C@@H](CC(C)C)C(=O)N[C@@H](CC(=O)O)C(=O)N[C@@H](CC(C)C)C(=O)N[C@@H](Cc1ccc(Cl)c(Cl)c1)C(=O)O
9 | 7.20 | 7.21 | CCC(=O)N[C@@H](CCC(N)=O)C(=O)N[C@@H](CC(C)C)C(=O)N[C@@H](CC(=O)O)C(=O)N[C@@H](CC(C)C)C(=O)N[C@@H](Cc1ccc(Cl)c(Cl)c1)C(=O)O
10 | 7.21 | 7.16 | CC(C)C[C@H](NC(=O)[C@H](CC(=O)O)NC(=O)[C@H](CC(C)C)NC(=O)[C@H](CCC(N)=O)NC(=O)C(C)(C)C)C(=O)N[C@@H](Cc1ccc(Cl)c(Cl)c1)C(=O)O
11 | 7.17 | 6.47 | CC(C)C[C@H](NC(=O)[C@H](CC(=O)O)NC(=O)[C@H](CC(C)C)NC(=O)[C@H](CCC(N)=O)NC(=O)COCc1ccccc1)C(=O)N[C@@H](Cc1ccc(Cl)c(Cl)c1)C(=O)O
12 | 7.18 | 6.27 | CC(C)C[C@H](NC(=O)[C@H](CC(=O)O)NC(=O)[C@H](CC(C)C)NC(=O)[C@H](CCC(N)=O)NC(=O)Cc1c[nH]c2ccccc12)C(=O)N[C@@H](Cc1ccc(Cl)c(Cl)c1)C(=O)O
13 | 7.38 | 7.57 | COc1ccc(C(=O)N[C@@H](CCC(N)=O)C(=O)N[C@@H](CC(C)C)C(=O)N[C@@H](CC(=O)O)C(=O)N[C@@H](CC(C)C)C(=O)N[C@@H](Cc2ccc(Cl)c(Cl)c2)C(=O)O)c(OC)c1
14 | 7.16 | 6.34 | CC(C)C[C@H](NC(=O)[C@H](CC(=O)O)NC(=O)[C@H](CC(C)C)NC(=O)[C@H](CCC(N)=O)NC(=O)c1ccccc1)C(=O)N[C@@H](Cc1ccc(Cl)c(Cl)c1)C(=O)O
15 | 7.70 | 7.39 | CC(C)COC(=O)N[C@@H](CCC(N)=O)C(=O)N[C@@H](CC(C)C)C(=O)N[C@@H](CC(=O)O)C(=O)N[C@@H](CC(C)C)C(=O)N[C@@H](Cc1ccc(Cl)c(Cl)c1)C(=O)O
16 | 7.07 | 7.05 | COC(=O)N[C@@H](CCC(N)=O)C(=O)N[C@@H](CC(C)C)C(=O)N[C@@H](CC(=O)O)C(=O)N[C@@H](CC(C)C)C(=O)N[C@@H](Cc1ccc(Cl)c(Cl)c1)C(=O)O
17 | 3.68 | – | NC(CCC(=O)NC(CSCC(=O)c1ccc(Br)cc1)C(=O)NCC(=O)O)C(=O)O (stereo not given)
18 | 3.52 | – | CCCC(C)(c1ccc(OC(=O)Cc2ccc([N+](=O)[O-])cc2)cc1)c1ccc(OC(=O)Nc2ccc([N+](=O)[O-])cc2)cc1 (stereo not given)
19 | 4.40 | – | CCC/C(=N\OCc1ccc(-c2ccc(F)cc2)cc1)C1C(=O)CC(C)(C)C(C#N)C1=O (stereo not given)
20 | 7.43 | 7.48 | CSCC[C@H](NC(=O)[C@H](CC(=O)O)NC(=O)[C@H](CC(C)C)NC(=O)[C@H](CCC(N)=O)NC(C)=O)C(=O)N[C@@H](Cc1ccc(Cl)c(Cl)c1)C(=O)O (Ac-QLDM[Phe(3,4-Cl2)]-OH)
21 | 5.35 | – | CC(C)C[C@H](NC(=O)[C@H](CC(=O)O)NC(=O)[C@H](CC(C)C)NC(=O)[C@@H]1CCC(=O)N1)C(=O)N[C@@H](Cc1ccccc1)C(=O)O ([pGlu]LDLF-OH)
22 | 3.76 | – | H-IGQADFFGV-OH
23 | 3.50 | – | H-IGQADIFGV-OH
24 | 4.25 | – | H-IGQADLFGV-OH
25 | 3.55 | – | H-IGQADMWGV-OH
26 | 3.46 | – | H-IGQADWFGV-OH
27 | 5.64 | 6.26 | H-IGQLSLFGV-OH

Row | Compound | pIC50 [1] | pIC50 [2]
28 | CC[C@H](C)[C@H](N)C(=O)NCC(=O)N[C@@H](CCC(N)=O)C(=O)N[C@@H](C)C(=O)N[C@@H](CC(=O)O)C(=O)N[C@@H](CCSC)C(=O)N[C@@H](Cc1ccccc1)C(=O)NCC(=O)N[C@H](C(=O)O)C(C)C | 4.02 | 5.52
